Bridge positions count the residues as written; N and C are the ends. Ends that are not written are not given here. I, II: the chains in the order shown.
How the values were obtained:
[1] = system: Anti-C5/gp41 sera from BI400-B immunized rabbits; assay: Competitive ELISA for rabbit sera after immunization with BI400-B; type: binding; details: antigen 10-1000 μM preincubated with rabbit serum; FIG. 3
Experimental: 50-100 μl of a mixture of BI400-015 and -201 (pre-incubated in Coating buffer—0.05M Na2CO3 pH9.6; denoted CB—in cold at 16 μg/ml for each peptide 1-3 days prior to coating) or just CB (background control) was used for coating wells in microtiter plates at 4° C. overnight. Plates were then washed 3× with washing buffer (PBS+1% v/v Triton-X100; denoted WB), followed by 2 h blocking at room temperature (RT) with 200 μl/well of blocking buffer (PBS+1% w/v BSA). Plates were then washed 3× with WB, followed by 1 h incubation at 37° C. with 60-100 μl/well of added rabbit serum samples (diluted 1:10-1:250 final concentration) preincubated together (4° C. overnight) with serial dilutions (ranging from 10-1000 μM final concentration) of 400-SEQ.B, BI400-015, BI400-201, BI400-204d, recombinant gp41 (Shin-Won Scientific, SWO 102 gp41), BI301-23 (irrelevant protein; control), no peptide (i.e. PBS; control), LTNP-sera pools (diluted 1:10 final concentration), or Blood donor sera-pools (diluted 1:10 final concentration; control). Plates were then washed 6× with WB, followed by 1 h incubation at RT with 70 μl/well of Alkaline Phosphatase-conjugated Goat-anti-Rabbit-Ig (6 μg/ml; Dako D0487). […] Plates were finally quenched by adding 100 μl/well of Quench solution (0.1M TRIS+0.1M EDTA+0.5M NaOH+0.01% w/v NaN3; pH14), followed by ELISA reader (ASYS UVM 340) at 550 nm.

HIV specific T-cells = details: IMiD present during stimulation with dendritic cells presenting Gag- or Nef-specific peptides; cited from earlier work
[2] = Toxicity of the dipeptide in mice; type: in vivo, NMFI female mice; details: injection, 100 μg per kg bodyweight, 4 mg/ml in 0.9% NaCl
Experimental: The dipeptide of Example 20 was diluted in 0.9% NaCl to a test solution concentration of 4 mg/ml. The peptide was administered by injection to NMFI female mice in a dose of 100 μg per kg bodyweight.

Compound	inhibition of antibody binding to C5/gp41 (015/201) by antigen [1]	function of the T-cells (HIV specific T-cells)	other results
201: gp41 peptide (DRPEGIEEEGGERDR) [compound 201]	could be inhibited		
Nc1cccc2c1CN(C1CCC(=O)NC1=O)C2=O (centres unmarked) [Lenalidomide]		a number of improvements in the function of the T-cells	
Nc1cccc2c1C(=O)N(C1CCC(=O)NC1=O)C2=O (centres unmarked) [pomalidomide]		a number of improvements in the function of the T-cells	
GGAIVNGSLADDDIVI [204d, peptide derived from C2]	could be inhibited		
I: WIIPGLNPLVGGGKLYSPTSILCG-NH2 / II: KALGPGATLQTPWTACQGVG-NH2 (disulfide I:23-II:16) [Example 20]			toxicological effects [2]: No toxicological effects were observed

From patent publication US10335482B2, “Method of inducing an anti-HIV-1 immune response comprising administering a C5/TM-GP41 peptide dimer” (priority 2012, dated 2019)
